Columns and labels:
[1] = pKa determination by potentiometric titration; type: physicochemical; details: acidified MeOH-water (1:4) solution of NaCl, 25° C.
Description: In an embodiment, pKa determination assay was carried out. The tendency of a compound to donate a proton is measured as its acid ionization constant (dissociation constant), or Ka. A more practical scale of representing acidity is pKa which is the negative logarithm of the Ka (pKa=−log Ka). The pKa determinations of the test compounds and 3 reference compounds were assessed by potentiometric titration, in accordance with the technical protocols for pKa measurement provided by Pion Inc. and Sirius Analytical Inc. Briefly, compounds pKa were determined by pH-metric method based on potentiometric acid-base titration at 25° C. The test and reference compounds were dissolved in acidified MeOH-water (1:4) solution of NaCl (150 mM, pH 2) and slowly titrated with 10 mM NaOH MeOH-water (1:4) solution. The recorded pH of the solution as a function of NaOH volume used during the titration were used to construct the titration curve. Titration of acidified NaCl solution in absence of any compound was used for blank plotting. Buffering capacity was calculated in each point of titration curve as the ratio of the NaOH flow (constant) to the pH rise velocity. The pKa value is determined from resulting plot of buffering capacity versus pH as the maximum of buffering capacity. pH-Metric method allows to measure pKa's in range between 2 and 12. […]

PAMPA assay, GIT model = type: in vitro ADME; details: log Papp; pH 7.4, 50 μM, 4 hours, room temperature
Description: In an embodiment, PAMPA assay was carried. All steps of PAMPA assay were carried out according to pION Inc. PAMPA Explorer™ Manual. The main principle of the assay is the compound incubation in the donor chamber with aqueous buffer, which is separated from the acceptor chamber, with another buffer, by a phospholipid or hydrocarbon membrane fixed on a filter support. After the test, concentrations in the corresponding donor and acceptor chambers are measured and permeability is calculated. GIT model was simulated using GIT-0 phospholipid mix. Verapamil and quinidine (high permeability) and ranitidine (low permeability) were used as reference compounds. All compounds were tested in quadruplicates. […] After incubation, aliquots from both chambers were transferred to optic UV-Vis plates and absorbance was recorded in the range of 202-500 nm in 4 nm steps. Compounds with low UV-Vis signal were evaluated by LC-MS/MS (using a Shimadzu VP HPLC system with a reverse phase HPLC column, coupled with tandem mass spectrometer API 3000 (PE Sciex) and TurbolonSpray ion source used in positive ion mode; acquisition and analysis of the data were performed using Analyst 1.5.2 software (PE Sciex)).
The apparent permeability coefficient was calculated using the formula below. […]
The apparent permeability coefficient was calculated for each compound (log Papp).

SMILES: COc1cccc2ccc(N3CCC(c4nc(-c5ccc(OC(F)(F)F)cc5)no4)CC3)nc12 [Compound 3, 5-(1-(8-methoxyquinolin-2-yl)piperidin-4-yl)-3-(4-(trifluoromethoxy)phenyl)-1,2,4-oxadiazole]
- pKa [1]: 3.9
- GIT PAMPA (PAMPA assay, GIT model): −4.8 log[10^−6 cm/s]

— US20240279217A1, “Heterocyclic compounds for the treatment of tuberculosis” (TECNIMEDE - SOCIEDADE TÉCNICO-MEDICINAL, SA, priority 2021, published 2024)
